{"source": "patent US20060251714A1", "about": "“Pharmaceutical formulations of amyloid inhibiting compounds” (priority 2005, published 2006)", "assay": "Gastrointestinal tolerability of capsules (solid dosage form)", "type": "in vivo", "conditions": "solid dosage form (capsules, Table 2)", "method": "Furthermore, the non-hygroscopic nature of the acid form makes it desirable as active pharmaceutical ingredient. To further protect against any possible gastrointestinal intolerance that could result from the acid form, the tablets are enteric-coated and a modified-release agent is added to control any rapid release of the drug in the stomach and the intestine, respectively."}
{"smiles": "NCCCS(=O)(=O)[O-].[Na+]", "note": "[3-amino-1-propanesulfonic acid sodium salt]", "values": [{"measurement": "gastrointestinal symptoms (i.e. nausea and vomiting)", "value": "associated with gastrointestinal symptoms"}]}
